The record followed here is patent US20240293586A1, “RA[…] AND USE THEREOF” (OSAKA UNIVERSITY, priority 2021, published 2024).

Holding throughout (type): in vivo, SCID mice
Data set [1] can be described thus: Blood biochemical tests and histopathological examination after the therapeutic test. Particulars: 3 weeks after 0.5 MBq. As to the method: (§1) The mice in the Compound 3 administration group (0.5 MBq, n=3) and control group (CTL, n=2) of Experimental Example 1 were kept for 3 weeks thereafter, and changes in tumor size were measured. The tumor size was standardized by size at the time of drug administration, and the relative ratio (fold change) to subsequent tumor size was calculated. The tumor size in the control group increased over time, and it increased about seven times after three weeks. […] The mice were dissected and blood biochemical tests were performed.

The subject of data set [2] is human prostate cancer cells (LNCaP). Description: Therapeutic test in human prostate cancer-transplanted mice with Compound 3 (tumor size). Particulars: 0.5 MBq, FIG. 6. As to the method: (§2) SCID mice (9 weeks old, male, n=5) were subcutaneously transplanted with human prostate cancer cells (LNCaP, 0.5×10^7 cells/mouse), and then kept for one month. The mice were divided into Compound 3 administration group (n=3) and control group (n=2). For the Compound 3 administration group, Compound 3 (0.43±0.01 MBq) was administered via the tail vein. For the control group, physiological saline was administered. The mice in the Compound 3 administration group (n=3) were anesthetized with isoflurane inhalation at 3 and 24 hours after administration, and the planar images were taken using a SPECT camera (E-cam, Siemens) (matrix size: 256×256, pixel size 1.2×1.2 mm, collimator: LEAP, energy window: 79 keV±20%, image acquisition time 10 min or 20 min).
as §1

Data set [3] has the same test system. The experiment in a line: Biodistribution test in human prostate cancer-transplanted mice or normal mice. Conditions: approximately 0.1 MBq, 3 and 24 hours after administration; for accumulation in the tumors (radioactivity distribution % ID, % ID/g): tumor-transplanted mice, FIGS. 8, 10; for accumulation in the kidney (radioactivity distribution % ID, % ID/g): tumor-transplanted or normal mice, FIGS. 7 to 11. As to the method:
SCID mice (9 weeks old, male, n=5) were subcutaneously transplanted with human prostate cancer cells (LNCaP, 0.5×10^7 cells/mouse), and then kept for one month. Compound 3, 4, 7 or 8 (approximately 0.1 MBq) was administered to the tumor-transplanted mice or normal mice, and the mice were dissection under isoflurane inhalation anesthesia at 3 and 24 hours after administration to collect various organs including blood, urine and tumors. The radioactivity distribution (% ID) and radioactivity distribution per 1 g of organ weight (% ID/g) were measured for each organ.

The test system is the same in data set [4]. Description: Therapeutic test in human prostate cancer-transplanted mice (Experimental Example 4). Particulars: 0.4 MBq or 1 MBq, n=3; kept for 3 weeks; FIGS. 12 to 14. As to the method: SCID mice (9 weeks old, male, n=5) were subcutaneously transplanted with human prostate cancer cells (LNCaP, 0.5×10^7 cells/mouse), and then kept for one month. The tumor-transplanted mice were divided into Compound 3, 7 or 8 administration group (0.4 MBq or 1 MBq, n=3) and control group (CTL, n=2 or 3), and kept for 3 weeks thereafter, and changes in tumor size and body weight were measured.

Data set [5] has the same test system. Description: Imaging of human prostate cancer-transplanted mice (planar images, SPECT camera). Conditions: FIG. 5; for accumulation at the tumor-transplanted site: 0.43±0.01 MBq via the tail vein. As to the method:
as §2

The mark [6] stands for this setting: planar imaging at 3 and 24 hours after administration.

In the case of `O=C(O)CC[C@H](NC(=O)N[C@@H](CCCCNC(=O)[C@@H](Cc1ccc2ccccc2c1)NC(=O)c1ccc(CNC(=O)[C@@H](CCC(=O)O)NC(=O)[C@@H](CCC(=O)O)NC(=O)Cc2ccc([211At])cc2)cc1)C(=O)O)C(=O)O` [Compound 3], in data set [1], the “histopathological examination of kidneys, salivary glands and thyroid glands” value is “no particular abnormal findings”; the “renal function marker values (blood biochemical tests) versus control group” value is recorded as “no significant differences”. Besides, the “tumor size, relative ratio (fold change) to size at the time of drug administration” value in data set [2] (after three weeks, n=3, control increased about seven times) turned out to be 0.27 times. Moreover, the tumor size change result in data set [2] (immediately after administration) is recorded as “tendency to shrink”. In data set [3], the “accumulation in the tumors (radioactivity distribution % ID, % ID/g)” value is reported as “significantly accumulated in the tumors” and the “accumulation in the kidney (radioactivity distribution % ID, % ID/g)” value is on record as “accumulate physiologically in the kidney”. Also, in data set [4], the “change in tumor size versus control group” value is “tumor growth inhibition was observed”. Also, in data set [5] (3 hours after administration), the “accumulation at the tumor-transplanted site” value is “accumulated at the tumor-transplanted site”. Also, the “accumulation at the tumor-transplanted site” value in data set [5] (24 hours after administration) is on record as “the accumulation continued”. Moreover, in data set [5] (setting [6]), the “accumulation in the kidneys” value is given as “physiological accumulation in the kidneys” and the “nonspecific accumulation in other organs” value is on record as “no nonspecific accumulation in other organs was observed”.

Turning to `O=C(O)CC[C@H](NC(=O)N[C@@H](CCCCNC(=O)[C@H](Cc1ccc2ccccc2c1)NC(=O)c1ccc(CNC(=O)[C@H](CCC(=O)O)NC(=O)[C@H](CCC(=O)O)NC(=O)Cc2ccc([211At])cc2)cc1)C(=O)O)C(=O)O` [Compound 4], the “accumulation in the kidney (radioactivity distribution % ID, % ID/g)” value in data set [3] is reported as “accumulate physiologically in the kidney”.

For `O=C(O)CC[C@H](NC(=O)N[C@@H](CCCCNC(=O)[C@@H](Cc1ccc2ccccc2c1)NC(=O)c1ccc(CNC(=O)CCC(=O)NCCCC[C@H](NC(=O)CNC(=O)Cc2ccc([211At])cc2)C(=O)O)cc1)C(=O)O)C(=O)O` [Compound 7], in data set [3], the “accumulation in the tumors (radioactivity distribution % ID, % ID/g)” value is recorded as “significantly accumulated in the tumors” and the “accumulation in the kidney (radioactivity distribution % ID, % ID/g)” value was “accumulate physiologically in the kidney”. The “change in tumor size versus control group” value in data set [4] is recorded as “tumor growth inhibition was observed”.

Take `O=C(O)CC[C@H](NC(=O)N[C@@H](CCCCNC(=O)[C@@H](Cc1ccc2ccccc2c1)NC(=O)c1ccc(CNC(=O)[C@@H](CCC(=O)O)NC(=O)[C@@H](CCC(=O)O)NC(=O)CCC(=O)NCCCC[C@H](NC(=O)CNC(=O)Cc2ccc([211At])cc2)C(=O)O)cc1)C(=O)O)C(=O)O` [Compound 8]: the “accumulation in the kidney (radioactivity distribution % ID, % ID/g)” value in data set [3] is reported as “accumulate physiologically in the kidney”. Besides, in data set [4], the “change in tumor size versus control group” value is reported as “tumor growth inhibition was observed”.
